In patent publication US8513195B2, “Treatment of mood and anxiety disorders” (priority 2008, dated 2013):

Legend:
mice [1] = experiment: social defeat stress (SDS) test; format: in vivo, mouse; conditions: peptide 1 mg/kg; for SDS-induced social avoidance (time spend interacting, TSI): defeated mice, treated 15 or 21 days
Source text: (A) Data represent means+/−SE of time spend interacting (TSI) with the cage, in the absence (non-hatched bars) or presence (hatched bars) of the target. When target is present, control mice engage in active social behaviour, seen as an increase of TSI (panel a), while vehicle-treated defeated mice (panel b; white bars) show lower TSI, indicating social avoidance.
In the social defeat stress test (SDS), mice were exposed repeatedly (2 week) to aggressive mice; controls were gently handled. Subsequently, the aggressors were removed. Mice were treated with vehicle or TAT-DEF-Elk1 (1 mg/kg) for 15 or 21 days, and then tested for SDS-induced social avoidance. The test box contained a perforated plastic cage that was empty for the first test session and that held a neutral mouse (target) for the second test session.

mice [2] = experiment: mouse tail suspension test (TST); format: in vivo; conditions: i.p., peptide 90 min, desipramine and fluoxetine (20 mg/kg) 30 min prior to test, 5 min trial
Experimental: (§1) In these tests experimental animals are exposed to inescapable aversive situations (hanging by the tail, being into the water) and in response show alternate periods of agitation and immobility reflecting “attempts to escape” and ‘behavioural resignation” respectively.
(§2) The details of the experimental protocols used are as follows: mice were injected i.p. with vehicle, different doses of the peptide TAT-DEF-Elk-1, of a scrambled peptide (serving as control), of the MEK inhibitor SL327, or with the reference antidepressants fluoxetine (20 mg/kg) or desipramine (20 mg/kg), at appropriate time points before the test trial.
(§3) In the TST, each mouse was tested in an individual cubicle while suspended from a tail hanger with adhesive tape wrapped around its tail (1.5-2 cm from tip) 80 cm above the floor. The trial was conducted for 5 min, during which the duration of immobility was measured automatically (BIOSEB, France). For the FST, mice were placed in clear plastic cylinders (diameter 10 cm; height 25 cm) filled with water at 6 cm height (22-25° C.) for 6 min. A blinded observer scored the duration of immobility manually during the last 4 min of the 6-min test.

mice [3] = experiment: mouse forced swimming test (FST); format: in vivo; conditions: i.p., peptide 90 min, desipramine (20 mg/kg) 30 min prior to test, last 4 min of 6-min test
Experimental: as §1, §2, §3

mice [4] = experiment: unpredictable chronic mild stress paradigm (UCMS); format: in vivo, mouse; conditions: for UCMS-induced immobility in the TST / sucrose preference (% of sugar of total consumption): end of 3-week UCMS, peptide 1 mg/kg or fluoxetine 20 mg/kg once daily
Source text: We have also assessed the effects of the TAT-DEF-Elk1 peptide in the unpredictable chronic mild stress paradigm ([…] is used as a pertinent model of depression with aetiological validity. In UCMS protocols animals are subjected for a long period to different non-anticipated stressors. Chronic exposure to stress results to a syndrome in mice that reproduces symptoms of depression, including increased resignation, anxiety-like behavior, decreased consumption of palatable food, and physiological changes. Chronic administration of compounds with antidepressant activity reverses these changes. The protocol that we have used consists of three weeks of UCMS, during which mice were subjected to various stressors according to a 'random' schedule. Body weight and coat state were assessed weekly, as markers of the progression of the UCMS-evoked syndrome. At the end of the 3 week period the emotional state of the mice was tested in behavioral tests of emotionality and of depression-like behaviors (FIG. 3A). Experimental groups of mice were as follows: (i) non-stressed mice: these were group housed and were handled and maintained under standard laboratory conditions (Group 1; FIG. 3B), (ii) stressed mice: these were maintained under standard laboratory conditions but were isolated in small individual cages. During the three week protocol they were exposed to three mild stressors per day. Stressed-mice were treated either with vehicle (Group 2; FIG. 3B), with the peptide (1 mg/kg; once daily), or with the reference antidepressant fluoxetine (20 mg/kg; once daily) (Group 3; FIG. 3B). Treatment with vehicle or compounds started at the beginning of the UCMS and lasted throughout the three week period. At the end of the UCMS paradigm, mice were tested for depressive-like responses, such as passivity and resignation measured as increased immobility in the tail suspension test and anhedonia measured as the preference to sucrose.

mice [5] = conditions: described in the literature; cited from earlier work
plasma corticosterone = plasma corticosterone after 30 min restraint stress (RIA); format: in vivo, C57BL/6J mice
Experimental: Data represent means+/−SE of plasma corticosterone in banal conditions (non-stressed, light grey bars) and immediately after a 30-min restraint stress (dark grey bars); vehicle or the TAT-DEF-Elk1 peptide were administered […] before the beginning of stress; *p<0.05 as compared to non-stressed; #p<0.05 as compared to vehicle-treated.
In the second experiment C57BL/6J mice (10 weeks old) were injected with TAT-DEF-Elk1 peptide or vehicle; 1 h30 after the injection the mice were subjected to a 30 min restraint stress i.e. mice were confined individually in a 50 ml Falcon tube in which a hole was made at the top for the mice to breathe. Mice were decapitated directly after restraint, blood was collected in 2 ml eppendorfs containing EDTA at 4° C. Samples were centrifuged for 15 min at 760 g, plasma was collected and corticosterone assessed using the Corticosterone Double Antibody 125-I RIA kit (MP BIOMEDICAL).

Elk1 = experiment: tail suspension-induced Elk1 phosphorylation in medial prefrontal cortex (immunochemistry); format: in vivo, mouse; conditions: 2 mg/kg, 1 h30 before 10 min TST; perfused 20 min after start
Experimental: (§4) In the first experiment, TAT-DEF-Elk-1 peptide (2 mg/kg) or vehicle were administrated 1 h30 before a 10 min tail suspension trial (TST). Mice were perfused 20 min after starting the TST test and phosphorylation of ERK and Elk1 was assessed with immunochemistry.

ERK = experiment: tail suspension-induced ERK phosphorylation (immunochemistry); format: in vivo, mouse; conditions: 2 mg/kg, 1 h30 before 10 min TST; perfused 20 min after start
Experimental: as §4

[6] = stressed mice, peptide 1 mg/kg once daily for three weeks

## CNCCCN1c2ccccc2CCc2ccccc21 [desipramine, reference compound]
Mice [1]
  SDS-induced social avoidance (time spend interacting, TSI): did not have any effect
Mice [2]
  immobility in the TST: of similar magnitude of that of fluoxetine and desipramine
Mice [3]
  immobility in the FST: antidepressant-like effects similar to the classical antidepressant desipramine

## CNCCC(Oc1ccc(C(F)(F)F)cc1)c1ccccc1 (stereo not shown) [fluoxetine, reference compound]
Mice [2]
  immobility in the TST: of similar magnitude of that of fluoxetine and desipramine
Mice [4]
  UCMS-induced immobility in the TST: similarly to the reference antidepressant fluoxetine
  sucrose preference (% of sugar of total consumption): similarly to the reference antidepressant fluoxetine

## CN(C)CCCN1c2ccccc2CCc2ccccc21 [imipramine]
Mice [5]
  duration of administration after which antidepressant action in the SDS test: 39 days

## GRKKRRQRRRPPSPAKLSFQFPSSGSAQVHI (selective peptide inhibitor of Elk-1 activation - TAT-DEF-Elk-1) [TAT-DEF-Elk-1 peptide]
Plasma corticosterone; immediately after 30-min restraint stress, injected 1 h30 before
  stress induced elevation of plasma corticosterone: markedly reduces stress induced-elevations in plasma level corticosterone
Plasma corticosterone; non-stressed mice
  basal plasma level corticosterone: does not affect basal plasma level corticosterone
Mice [1]
  SDS-induced social avoidance (time spend interacting, TSI): fully reverses this behaviour
  duration of administration after which active in the SDS test: 15 days
Mice [2]
  immobility in the TST: reduced immobility in the TST similar to classical antidepressants
Elk1
  tail suspension-induced Elk1 phosphorylation in mPFCx: reduces selectively tail suspension-induced Elk1 phosphorylation
Mice [4]
  UCMS-induced immobility in the TST: reduced UPMS-induced immobility in the TST
  sucrose preference (% of sugar of total consumption): fully restored UCMS-blunted sucrose preference
Mice [4]; [6]
  UCMS-induced body weight loss: reversed the progressive weight loss induced by UCMS
  UCMS-induced degradation of the coat state: diminished the degradation of the coat state
Mice [3]
  immobility in the FST: induced antidepressant-like effects in the FST
ERK
  tail suspension-induced ERK phosphorylation: does not inhibit tail suspension-induced ERK phosphorylation
